Data as given in US20240197687A1, “METHODS OF TREATING NEUROINFLAMMATION AND INHIBITING MONOAMINE OXIDASE-A AND RESTORING/UPREGULATING/INCREASING IL-13 AND AND PGC-1 BY ADMINISTERING ORAL DOSAGE FORM CONTAINING MICRONIZED AND NONMICRONIZED PARTICULATE METAXALONE, ALGINIC ACID AND PROPYLENE GLYCOL ALGINATE” (Primus Pharmaceuticals, Inc., priority 2022, published 2024).

What was measured:
HMC3 microglial cells [1] = experiment: Western blot protein levels in IL-1β-stimulated HMC3 cells; type: cell-based, Human; details: metaxalone 10, 20, 40 μg/mL, p<0.0001 vs. IL-1β
Procedure: Western Blot Analysis. HMC3 cells were homogenized in RIPA buffer (25 mM Tris/HCl, pH 7.4; 1.0 mM EGTA; and 1.0 mM EDTA) with 1% of NP40, 0.5% of phenyl methylsulfonyl fluoride (PMSF), aprotinin, and leupeptin and pepstatin (10 μg/mL each) to perform protein extraction. Lysates were centrifuged at 15,000×g for 15 min at 4° C. and the supernatant was collected for protein determination using a specific kit (Bio-Rad DC; Bio-Rad, Richmond, CA, USA). Samples were denatured in a reducing buffer (62 mM Tris pH 6.8, 10% glycerol, 2% SDS, 5% β-mercaptoethanol, and 0.003% bromophenol blue) and proteins were separated by electrophoresis on SDS polyacrylamide gels. Following electrophoresis, samples were transferred onto a PVDF membrane (Amersham, Little Chalfont, UK) in a transfer buffer (39 mM glycine, 48 mM Tris pH 8.3, and 20% methanol) at 200 mA for 1 h. The obtained membranes were incubated with 5% non-fat dry milk in TBS/0.1% Tween for 1 h at room temperature, washed 3 times in TBS/0.1% Tween, and incubated with primary antibodies to detect pNF-κB, PPARγ, PGC-1α (Cell Signaling, Danvers, MA, USA), NRF-2, and MAO-A (Abcam, Cambridge, UK), diluted in TBS/0.1% Tween overnight at 4° C. The day after, following 3 washes with TBS/0.1% Tween, membranes were incubated with secondary peroxidase-conjugated goat anti-mouse and anti-rabbit antibodies (KPL, Gaithersburg, MD, USA) for 1 h at room temperature. After washing, membranes were analyzed by the enhanced chemiluminescence system (LumiGlo reserve; Seracare, Milford, MA, USA). The protein signal was detected and quantified by scanning densitometry using a bio-image analysis system (C-DiGit, Li-cor, Lincoln, NE, USA). The results were expressed as relative integrated intensity and β-actin (Cell Signaling, Danvers, MA, USA) was used to confirm equal protein loading. (See, […]. et al. β-Caryophyllene Inhibits Cell Proliferation through a Direct Modulation of CB2 Receptors in Glioblastoma Cells. Cancers 2020, 12, 1038).

[2] = test system: CYP1A2, CYP2B6, CYP2C9, CYP2C19, CYP2D6, CYP2E1, CYP3A; details: cited from earlier work
[3] = test system: Mouse Macrophages RAW264.7 cells; details: LPS-stimulated mouse macrophages; cited from earlier work
[4] = molecular target: T1, monoamine oxidase A (MAO-A) (Homo sapiens, UniProt P21397); details: cited from earlier work
T1 sequence (P21397 1-527): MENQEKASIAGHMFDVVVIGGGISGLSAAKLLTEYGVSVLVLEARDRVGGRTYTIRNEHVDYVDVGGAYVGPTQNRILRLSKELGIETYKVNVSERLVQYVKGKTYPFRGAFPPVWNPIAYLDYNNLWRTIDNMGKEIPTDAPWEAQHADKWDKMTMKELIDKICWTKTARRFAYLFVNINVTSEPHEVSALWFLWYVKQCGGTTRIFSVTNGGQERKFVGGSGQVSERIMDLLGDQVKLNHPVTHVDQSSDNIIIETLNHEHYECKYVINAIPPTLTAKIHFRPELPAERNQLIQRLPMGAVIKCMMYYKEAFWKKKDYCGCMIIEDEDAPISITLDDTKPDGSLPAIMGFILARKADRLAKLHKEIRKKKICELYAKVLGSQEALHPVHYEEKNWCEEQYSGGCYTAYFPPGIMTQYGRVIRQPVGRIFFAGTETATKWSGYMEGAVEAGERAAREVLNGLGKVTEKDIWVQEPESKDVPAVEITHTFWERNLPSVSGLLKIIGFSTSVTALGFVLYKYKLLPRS

HMC3 microglial cells [5] = experiment: ELISA of cytokines in cell culture supernatants of IL-1β-stimulated HMC3 cells; type: cell-based, Human; details: metaxalone 10, 20, 40 μg/mL, dose-dependent, p<0.0001 vs. IL-1β
Procedure: Human microglial HMC3 cell line (CRL-3304) was obtained from ATCC (American Type Culture Collection; Manassas, VA, USA). Cells were cultured in Eagle's minimum essential medium (EMEM) with a supplement of 10% fetal bovine serum (FBS) and 1% antibiotic mixture, and were incubated at 37° C. with 5% of CO2. Both medium and supplements were provided by ATCC (Manassas, VA, USA). Cells were seeded in 6-well plates at a density of 4×10^5 cells/well. A stock solution of metaxalone (Sigma Aldrich, Milan, Italy) was prepared by dissolving metaxalone in DMSO. Sixteen hours after plating (time 0), metaxalone was added at the doses of 10, 20, and 40 μg/mL 1 h following IL-1β stimulation (5 ng/mL; Sigma Aldrich, Milan, Italy). After 6 h cells were harvested for mRNA evaluation. In a separate set of plates, cells were incubated for 24 h before MTT assay to evaluate cell viability. The dose-response curve for IL-1β stimulation can be found at Supplemental FIG. S1. Measurements of Cytokines by Enzyme-Linked Immunosorbent Assay (ELISA). Tumor necrosis factor-alpha (TNF-α), interleukin-6 (IL-6) and interleukin-13 (IL-13) were measured in the cell culture supernatants. The products under investigation were measured using enzyme-linked immunosorbent assay (ELISA) kits (Abcam, Cambridge, UK), in agreement with the instructions reported by the manufacturer. All the samples were evaluated in duplicate and the obtained results were interpolated with the pertinent standard curves. To evaluate the sample, the means of the duplicated sample were used and expressed in pg/mL.

MAO-A = molecular target: T2, MAO-A (Homo sapiens, UniProt P21397); experiment: MAO-A activity assay (MAO-GLO bioluminescent) in IL-1β-stimulated microglial cells; type: cell-based; details: chemiluminescence assay, metaxalone 10, 20, 40 μg/mL, dose-dependent, p<0.0001 vs. IL-1β
T2 construct: MAO-A was constitutively expressed in microglia cells; endogenous in cells; host or cells: HMC3 human microglial cells
T2 sequence (P21397 1-527): T1 sequence (P21397 1-527)
Procedure: MAO-A Activity Assay. MAO-A activity was evaluated by a two-step bioluminescent assay methodology, as previously described (See, Lin, Y. C. et al., MAO-A novel decision maker of apoptosis and autophagy in hormone refractory neuroendocrine prostate cancer cells. Sci. Rep. 2017, 7, 46338) using a MAO-GLO™ assay kit from Promega (Madison, WI, USA). The produced amount of signal (light intensity) was measured using a microplate luminometer (Multilabel Counter Victor3™, PerkinElmer Life Sciences). Human recombinant MAO-A enzyme was used as a positive control. The results are given as relative light units after the background was subtracted.

SMILES: Cc1cc(C)cc(OCC2CNC(=O)O2)c1 (stereo not shown) [metaxalone, 5-[(3,5-dimethylphenoxy)methyl]-2-oxazolidinone]
- NRF-2 protein levels (HMC3 microglial cells [1]; dose-dependent): significantly increased
- PGC-1α protein expression (HMC3 microglial cells [1]): stimulated
- PPARγ protein expression (HMC3 microglial cells [1]): stimulated
- p-NF-κB protein levels (HMC3 microglial cells [1]): blunted the increase
- CYP induction [2]: inducer of CYP1A2 and CYP3A4
- CYP inhibition [2]: inhibitor of CYP1A2, CYP2B6, CYP2C9, CYP2C19, CYP2D6, CYP2E1, and CYP3A
- CYP substrate status [2]: substrate of CYP1A2 and CYP2C19
- inflammatory cytokines [3]: robust reduction
- MAO-A inhibition [4]: reported to inhibit
- IL-6 protein levels (HMC3 microglial cells [5]; supernatant of IL-1β-stimulated HMC3 cells (IL-6 increased by IL-1β)): significantly reverted
- IL-13 protein levels (HMC3 microglial cells [5]; supernatant of IL-1β-stimulated HMC3 cells (IL-13 decreased by IL-1β)): significantly reverted
- TNF-α protein levels (HMC3 microglial cells [5]; supernatant of IL-1β-stimulated HMC3 cells (TNF-α increased by IL-1β)): significantly reverted
- MAO-A activity (MAO-A): suppressed
